For the experiment, the system named is HCV replicon. Briefly: Replicon based assay of HCV replication inhibition (NPT ELISA). In kind it is cell-based, Hepatitis C virus. Conditions: Hepatitis C virus, replicon based assay of HCV replication inhibition; Table II; read-out: Activity. In outline: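 Huh-7 cells carrying a bicistronic HCV replicon (neo, EMCV-IRES-driven NS3–NS5B) treated overnight after seeding with usually 6 concentrations, 10 to 0.03 micromolar, for three days at 37° C without G418. Replication read as NPT level by captured ELISA; matched-DMSO wells and interferon alpha as controls.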
`O=C(O)Cc1ccc(-c2csc(Nc3ccc(OC4CCCC4)c(C(F)(F)F)c3)n2)s1` [compound 247, 2-(5-(2-(4-(cyclopentyloxy)-3-(trifluoromethyl)phenyl-amino)-thiazol-4-yl)thiophen-2-yl)acetic acid]: the EC50 is under 1000 nM. For `COc1ccc(-c2csc(Nc3ccc(OC4CCCC4)c(C(F)(F)F)c3)n2)cc1` [compound 248, N-(4-(cyclopentyloxy)-3-(trifluoromethyl)phenyl)-4-(4-methoxyphenyl)thiazol-2-amine], the EC50 was under 1000 nM. Take `COc1ccc(-c2csc(Nc3ccc(OCC(C)C)c(C(F)(F)F)c3)n2)cc1` [compound 249, N-(4-isobutoxy-3-(trifluoromethyl)phenyl)-4-(4-methoxyphenyl)thiazol-2-amine]: the EC50 was under 1000 nM.

In the case of `COc1ccc(-c2csc(Nc3ccc(OCC4CC4)c(C(F)(F)F)c3)n2)cc1` [compound 250, N-(4-(cyclopropylmethoxy)-3-(trifluoromethyl)phenyl)-4-(4-methoxyphenyl)thiazol-2-amine], the EC50 is under 1000 nM. Turning to `O=C1COc2ccc(-c3csc(Nc4ccc(OC5CCCC5)c(C(F)(F)F)c4)n3)cc2N1` [compound 251, 6-(2-(4-(cyclopentyloxy)-3-(trifluoromethyl)phenyl-amino)thiazol-4-yl)-2H-benzo[b][1,4]oxazin-3(4H)-one], the EC50 is under 1000 nM. `CC(C)COc1ccc(Nc2nc(-c3ccc4c(c3)NC(=O)CO4)cs2)cc1C(F)(F)F` [compound 252, 6-(2-(4-isobutoxy-3-(trifluoromethyl)phenyl-amino)thiazol-4-yl)-2H-benzo[b][1,4]oxazin-3(4H)-one]: the EC50 is under 1000 nM. The value for `O=C1COc2ccc(-c3csc(Nc4ccc(OCC5CC5)c(C(F)(F)F)c4)n3)cc2N1` [compound 253, 6-(2-(4-(cyclopropylmethoxy)-3-(trifluoromthyl)phenyl-amino)thiazol-4-yl)-2H-benzo[b][1,4]oxazin-3(4H)-one] was 1000 to 10000 nM; that for `NC(=O)c1cc(-c2csc(Nc3ccc(OC4CCCC4)c(C(F)(F)F)c3)n2)ccc1O` [compound 254, 5-(2-(4-(cyclopentyloxy)-3-(trifluoromethyl)phenyl-amino)thiazol-4-yl)-2-hydroxybenzamide] was under 1000 nM. Regarding `CC(C)COc1ccc(Nc2nc(-c3ccc(O)c(C(N)=O)c3)cs2)cc1C(F)(F)F` [compound 255, 2-hydroxy-5-(2-(4-isobutoxy-3-(trifluoromethyl)phenyl-amino)thiazol-4-yl)benzamide], the EC50 was under 1000 nM. The figure for `NC(=O)c1cc(-c2csc(Nc3ccc(OCC4CC4)c(C(F)(F)F)c3)n2)ccc1O` [compound 256, 5-(2-(4-(cyclopropylmethoxy)-3-(trifluoromethyl)phenyl-amino)thiazol-4-yl)-2-hydroxybenzamide] is under 1000 nM.

Turning to `Fc1ccc(-c2csc(Nc3ccc(OC4CCCC4)c(C(F)(F)F)c3)n2)cc1F` [compound 257, N-(4-(cyclopentyloxy)-3-(trifluoromethyl)phenyl)-4-(3,4-difluorophenyl)thiazol-2-amine], the EC50 was under 1000 nM. The figure for `Cc1sc(Nc2ccc(OCC3CC3)c(C(F)(F)F)c2)nc1-c1ccc(CC(=O)O)cc1` [compound 258, 2-(4-(2-(4-(cyclopropylmethoxy)-3-(trifluoromethyl)phenyl-amino)-5-methylthiazol-4-yl)phenyl)acetic acid] is under 1000 nM; for `CCCCCOc1ccc(Nc2nc(-c3ccc(C(=O)NC)nc3)cs2)cc1C(F)(F)F` [compound 259, N-methyl-5-(2-(4-(pentyloxy)-3-(trifluoromethyl)phenyl-amino)thiazol-4-yl)picolinamide] it is under 1000 nM. As for `CCCCCOc1ccc(Nc2nc(CNCc3cccnc3)cs2)cc1C(F)(F)F` [compound 260, N-(4-(pentyloxy)-3-(trifluoromethyl)phenyl)-4-((pyridin-3-ylmethylamino)methyl)thia-zol-2-amine], the EC50 is under 1000 nM. The value for `CCCCCOc1ccc(Nc2nc(CNc3ccc(Cl)c(Cl)c3)cs2)cc1C(F)(F)F` [compound 261] was 1000 to 10000 nM; that for `CCCCCOc1ccc(Nc2nc(-c3csc(N)n3)cs2)cc1C(F)(F)F` [compound 262, 4-(2-aminothiazol-4-yl)-N-(4-(pentyloxy)-3-(trifluoromethyl)phenyl)thia-zol-2-amine] was under 1000 nM; that for `CCCCCOc1ccc(Nc2nc(-c3cn4cccnc4n3)cs2)cc1C(F)(F)F` [compound 263, 4-(imidazo[1,2-a]pyrimidin-2-yl)-N-(4-(pentyloxy)-3-(trifluoromethyl)phenyl)thia-zol-2-amine] was under 1000 nM. Turning to `CCCCCOc1ccc(Nc2nc(-c3ccc(CO)nc3)cs2)cc1C(F)(F)F` [compound 264, (5-(2-(4-(pentyloxy)-3-(trifluoromethyl)phenyl-amino)thiazol-4-yl)pyridin-2-yl)methanol], the EC50 is under 1000 nM. As for `CCCCCOc1ccc(Nc2nc(CN3CCN(C(=O)OC(C)(C)C)CC3)cs2)cc1C(F)(F)F` [compound 265, tert-butyl 4-((2-(4-(pentyloxy)-3-(trifluoromethyl)phenyl-amino)thiazol-4-yl)methyl)piperazine-1-carboxylate], the EC50 is under 1000 nM. The figure for `CCCCCOc1ccc(Nc2nc(CN3CCC(N(C)C(=O)OC(C)(C)C)C3)cs2)cc1C(F)(F)F` (stereo not drawn) [compound 266, tert-butyl methyl(1-((2-(4-(pentyloxy)-3-(trifluoromethyl)phenyl-amino)thiazol-4-yl)methyl)pyrrolidin-3-yl)carbamate] is under 1000 nM; for `CCCCCOc1ccc(Nc2nc(CN3CCC(C(N)=O)CC3)cs2)cc1C(F)(F)F` [compound 267, 1-((2-(4-(pentyloxy)-3-(trifluoromethyl)phenyl-amino)thiazol-4-yl)methyl)piperidine-4-carboxamide] it is under 1000 nM; for `CCCCCOc1ccc(Nc2nc(CN3CCC[C@H]3C(=O)O)cs2)cc1C(F)(F)F` [compound 268, (S)-1-((2-(4-(pentyloxy)-3-(trifluoromethyl)phenyl-amino)thiazol-4-yl)methyl)pyrrolidine-2-carboxylic acid] it is under 1000 nM. The value for `CCCCCOc1ccc(Nc2nc(CN3CCC(O)CC3)cs2)cc1C(F)(F)F` [compound 272, 1-((2-(4-(pentyloxy)-3-(trifluoromethyl)phenyl-amino)thiazol-4-yl)methyl)piperidin-4-ol] was under 1000 nM; that for `CCCCCOc1ccc(Nc2nc(CN3CCC(CO)CC3)cs2)cc1C(F)(F)F` [compound 273, (1-((2-(4-(pentyloxy)-3-(trifluoromethyl)phenyl-amino)thiazol-4-yl)methyl)piperidin-4-yl)methanol] was under 1000 nM; that for `CCCCCOc1ccc(Nc2nc(CN3CCC(C(=O)O)CC3)cs2)cc1C(F)(F)F` [compound 274, 1-((2-(4-(pentyloxy)-3-(trifluoromethyl)phenyl-amino)thiazol-4-yl)methyl)piperidine-4-carboxylic acid] was under 1000 nM. With `CCCCCOc1ccc(Nc2nc(CN3CCCC(C(=O)O)C3)cs2)cc1C(F)(F)F` (stereo not drawn) [compound 275, 1-((2-(4-(pentyloxy)-3-(trifluoromethyl)phenyl-amino)thiazol-4-yl)methyl)piperidin-3-carboxylic acid], the EC50 is under 1000 nM. The value for `CCCCCOc1ccc(Nc2nc(CN3CCCC(C)C3)cs2)cc1C(F)(F)F` (stereo not drawn) [compound 276, 4-((3-methylpiperidin-1-yl)methyl)-N-(4-(pentyloxy)-3-(trifluoromethyl)phenyl)thia-zol-2-amine] was under 1000 nM; that for `CCCCCOc1ccc(Nc2nc(CN3C(C)CCCC3C)cs2)cc1C(F)(F)F` (stereo not drawn) [compound 277, 4-((2,6-dimethylpiperidin-1-yl)methyl)-N-(4-(pentyloxy)-3-(trifluoromthyl)phenyl)thia-zol-2-amine] was under 1000 nM. The figure for `CCCCCOc1ccc(Nc2nc(CN3CCC[C@@H]3C(=O)O)cs2)cc1C(F)(F)F` [compound 278, (R)-1-((2-(4-(pentyloxy)-3-(trifluoromethyl)phenyl-amino)thiazol-4-yl)methyl)pyrrolidine-2-carboxylic acid] is under 1000 nM. The figure for `CCCCCOc1ccc(Nc2nc(CN3CCN(C(=O)OC(C)(C)C)CC3)cs2)cc1F` [compound 279, tert-butyl 4-((2-(3-fluoro-4-(pentyloxy)phenylamino)thia-zol-4-yl)methyl)piperiazine-1-carboxylate] is 1000 to 10000 nM; for `CCCCCOc1ccc(Nc2nc(CN3CCC(N(C)C(=O)OC(C)(C)C)C3)cs2)cc1F` (stereo not drawn) [compound 280, tert-butyl 1-((2-(3-fluoro-4-(pentyloxy)phenylamino)thia-zol-4-yl)m,ethyl)pyrrolidin-3-yl(methyl)carbamate] it is 1000 to 10000 nM.

On to `CCCCCOc1ccc(Nc2nc(CN3CCN(Cc4ccccn4)CC3)cs2)cc1F` [compound 281, N-(3-fluoro-4-(pentyloxy)phenyl)-4-((4-(pyridin-2-ylmethyl)piperiazin-1-yl)methyl)thiazol-2-amine], for which the EC50 was under 1000 nM. The value for `CCCCCOc1ccc(Nc2nc(CN3CCN(C4CCCCCC4)CC3)cs2)cc1F` [compound 282, 4-((4-cycloheptylpiperazin-1-yl)methyl)-N-(3-fluoro-4-(pentyloxy)phenyl)thiazol-2-amine] was under 1000 nM; that for `CCCCCOc1ccc(Nc2nc(CN3CCN(CCN(C)C)CC3)cs2)cc1F` [compound 283, 4-((4-(2-(dimeethylamino)ethyl)piper-azin-1-yl)methyl)-N-(3-fluoro-4-(pentyloxy)phenyl)thiazol-2-amine] was 1000 to 10000 nM.

As to `CCCCCOc1ccc(Nc2nc(CN3CCCC(C(=O)N(CC)CC)C3)cs2)cc1F` (stereo not drawn) [compound 284, N,N-diethyl-1-((2-(3-fluoro-4-(pentyloxy)phenylamino)thia-zol-4-yl)methyl)piperidine-3-carboxamide], the EC50 fell in the range of 1000 to 10000 nM.

`CCCCCOc1ccc(Nc2nc(CN3CCOCC3)cs2)cc1F` [compound 285, N-(3-fluoro-4-(pentyloxy)phenyl)-4-(morpholinomethyl)thiazol-2-amine]: the EC50 was 1000 to 10000 nM.

These data come from patent US8088806B2 (Achillion Pharmaceuticals, Inc., priority 2005, dated 2012).
